Test results: patent US20120322728A1, “PPAR-SPARING THIAZOLIDINEDIONES AND COMBINATIONS FOR THE TREATMENT OF DIABETES MELLITUS AND OTHER METABOLIC DISEASES” (Metabolic Solutions Development Company, LLC, priority 2009, published 2012)
Values belong to the molecule of their own block, whether it stands above or below them.

Legend:
PGC-1α = experiment: Expression of PGC-1α mRNA in precursor BAT cells with norepinephrine (quantitative PCR); type: cell-based, mice; conditions: for PGC-1α mRNA in the presence of norepinephrine: 3 μM compound for seven days, then 1 μM norepinephrine for 2 hours
Procedure: Another example of the ability of augmented signaling between cyclic nucleotides and compounds of Formula I is shown by the effect on expression of PGC-1a, a known regulator of mitochondrial biogenesis. Increased numbers of mitochondria are predictive of utility for the reduction of body weight.
Precursor BAT cells were isolated as described above and treated with or without 3 μM compounds: 1.] Compound A: 5-(4-(2-(5-ethylpyridin-2-yl)-2-oxoethoxy)benzyl)-1,3-thiazolidine-2,4-dione; 2.] Compound C: 5-(4-(2R)-2-(5-ethylpyridin-2-yl)-2-hydroxyethoxyy)benzyl)-1,3-thiazolidine-2,4-dione; or Compound B: 5-(4-(2-(3-methoxyphenyl)-2-oxoethoxy)benzyl)-1,3-thiazolidine-2,4-dione for seven days followed by treatment with 1 μM norepinephrine for 2 hours. Total RNA was isolated from the cells and the RNA message (mRNA) for PGC-1α was measured by quantitative polymerase chain reactions.

BAT precursor cells = experiment: BAT differentiation: UCP1 protein by Western blot; type: cell-based, mice; conditions: BAT precursor cells treated with 0.1 to 10 μM for 7 days
Procedure: Precursors of BAT are isolated from the interscapular adipose pad of either normal or diabetic mice and cultured in vitro as described below based on the modifications recited in Petrovic N, Shabalina I G, Timmons J A, Cannon B, Nedergaard J. Am. J. Physiol. Endocrinol. Metab. 295:E287-E296, 2008, hereby incorporated by reference.
The brown fat pads are pooled and minced, digested for 45 minutes in isolation buffer containing 0.15% (wt/vol) collagenase. The cell suspension is filtered through a 100 μm nylon filter and centrifuged at 200×g for 5 minutes. […]
Cells are then treated with the compounds, compound salts, or co-crystals thereof being assayed for BAT differentiation. […] The development of the BAT phenotype is assessed by direct measure of the uncoupling protein 1 (UCP1), which is emblematic of brown adipose cells.
Following treatment of the cells, the growth medium is aspirated, rinsed with PBS, and lysed with KHM buffer containing 1% Igepal CA-630, and a protease inhibitor cocktail. The lysate is centrifuged at 8,000×g for 5 minutes (4° C.), the supernatant containing the cell lysate is collected and total protein analyzed using the BCA method. […] Densitometry is conducted on the scanned films using ImageJ software and analyzed using GraphPad Prism software. […]

[1] = AUC of compound related materials after oral dosing of Compound B forms; type: in vivo; conditions: 250 mg free acid equivalents, formulated tablets, N=4 cynomolgus monkeys
Procedure: Referring to FIG. 8, the area under the curve (AUC) of compound related materials was compared following dosing of 250 mg of Compound B as powder in capsules of free acid (PIC), formulated tablets of micronized free acid, or formulated tablets of the Na or K salt of Compound B given at the same free acid equivalents. (N=4 cynomolgus monkeys). The formulated, compressed tablet also contained in each case approximately 40.5% lactose, 16.8% microcrystalline cellulose, 1.9% Croscarmellose sodium, 0.5% colloidal silicon dioxide, and 0.9% magnesium stearate.

diabetic KKAy mouse = experiment: Blood glucose lowering in diabetic KKAy mouse; type: in vivo; conditions: diabetic KKAy mice (N=6), gavage once daily, plasma glucose after 4 daily doses
Procedure: In these experiments, free base or sodium salt was given to diabetic KKAy mice (N=6) and blood glucose was measured after 4 days of daily treatment at the doses indicated. KKAy mice, 8-12 weeks of age, were given the doses of the compounds according to the dosages on the X axis of FIG. 9. The compounds were given by gavage once daily at 10 mg/kg. On the fifth day (after 4 daily doses at the levels show) a blood sample was taken to measure plasma glucose.

[2] = Bioavailability of sodium salt of Compound A, crossover, oral capsule versus iv injection; type: in vivo; conditions: 90 mg free base equivalents, 4 male cynomolgus monkeys
Procedure: The monkeys fasted overnight and were dosed by oral gavage washed down with 10 ml tap water. Blood samples were taken at 0.25, 0.5, 1, 2, 3, 4, 6, 9, 12, 24, and 48 hours after a single dosage was administered and assayed for drug related materials with a LCMS assay using an internal standard. 90 mg of drug was put in 00 gelatin capsules containing 90 mg of free base equivalents. This was compared to an iv injection of 2 ml/kg and 45 mg of free base solution in 50% hydroxypropyl b-cyclodextran. The absolute availability versus an iv injection was determined for both parent compound and major metabolite.

SMILES: NC[C@H](O)c1ccc(O)c(O)c1 [norepinephrine, reference compound]
- PGC-1α mRNA, norepinephrine alone (PGC-1α; absence of compound (control), 1 μM norepinephrine for 2 hours): did not produce an increase

SMILES: COc1cccc(C(=O)COc2ccc(CC3SC(=O)NC3=O)cc2)c1 (stereo not shown) [Compound B, 5-(4-(2-(3-methoxyphenyl)-2-oxoethoxy)benzyl)-1,3-thiazolidine-2,4-dione]
- PGC-1α mRNA in the presence of norepinephrine (PGC-1α): increase

SMILES: CCc1ccc(C(=O)COc2ccc(CC3SC(=O)NC3=O)cc2)nc1 (stereo not shown) [5-(4-(2-(5-ethylpyridin-2-yl)-2-oxoethoxy)benzyl)-1,3-thiazolidine-2,4-dione]
- amount of UCP1 (Western blot) (BAT precursor cells): dose-dependent increase

- bioavailability (AUC of compound related materials) versus free acid [1]: significantly higher bioavailability
SMILES: COc1cccc(C(=O)COc2ccc(CC3SC(=O)[N-]C3=O)cc2)c1.[K+] (stereo not shown) [potassium salt of Compound B, Potassium 5-{4-[2-(3-methoxyphenyl)-2-oxoethoxy]benzyl}-2,4-dioxo-1,3-thiazolidin-3-ide]

SMILES: CCc1ccc([C@@H](O)COc2ccc(CC3SC(=O)NC3=O)cc2)nc1 (stereo partly shown) [Compound C]
- PGC-1α mRNA in the presence of norepinephrine (PGC-1α): increase

SMILES: CCc1ccc(C(=O)COc2ccc(CC3SC(=O)NC3=O)cc2)nc1 (stereo not shown) [Compound A, 5-(4-(2-(5-ethylpyridin-2-yl)-2-oxoethoxy)benzyl)-1,3-thiazolidine-2,4-dione]
- PGC-1α mRNA in the presence of norepinephrine (PGC-1α): increase

- bioavailability (AUC of compound related materials) versus free acid [1]: significantly higher bioavailability
SMILES: COc1cccc(C(=O)COc2ccc(CC3SC(=O)[N-]C3=O)cc2)c1.[Na+] (stereo not shown) [sodium salt of Compound B, Sodium 5-{4-[2-(3-methoxyphenyl)-2-oxoethoxy]benzyl}-2,4-dioxo-1,3-thiazolidin-3-ide]

- absolute bioavailability of major metabolite versus free base [2]: significantly higher bioavailability
- absolute bioavailability of parent compound versus free base [2]: significantly higher bioavailability
SMILES: CCc1ccc(C(=O)COc2ccc(CC3SC(=O)[N-]C3=O)cc2)nc1.[Na+] (stereo not shown) [sodium salt of Compound A, Sodium 5-{4-[2-(5-ethylpyridin-2-yl)-2-oxoethoxy]benzyl}-2,4-dioxo-1,3-thiazolidin-3-ide]
- lowering blood glucose (diabetic KKAy mouse): excellent dose response
